Measurements published in patent US20250230147A1, “LACTAMS AS CBL-B INHIBITORS” (Genentech, Inc., priority 2021, published 2025).
Counter-ions that a name gives are not always drawn.

How the values were obtained:
Cbl-b = Cbl-b (Homo sapiens (Human), UniProt Q13191); assay: Cbl-b LCK Ub TR-FRET assay (Cbl-b Lck HTRF); format: biochemical
Outline: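 TR-FRET (340 nm excitation, 615/665 nm emission) read after adding HA-ubiquitin–UBE2D2 thioester, anti-HA-D2 and streptavidin-Eu. Beforehand, compounds incubated 60 min with biotinylated Cbl-b, then 90 min with His-LCK and ATP (1 mM in 2× mix); IC50 from 10 concentrations, DMSO high and no-LCK low controls.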

c-Cbl = c-Cbl (Homo sapiens (Human), UniProt P22681); assay: C-Cbl LCK Ub TR-FRET assay (c-cbl Lck HTRF); format: biochemical; settings: for (fold-selectivity): C-cbl Lck HTRF IC50 relative to Cbl-b Lck HTRF IC50
Outline: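 Detection reagents added, brief spin, 20 min RT. IC50 fit normalized to no-LCK (low) and DMSO (high) controls.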

Chain of Cbl-b (Q13191 40-426): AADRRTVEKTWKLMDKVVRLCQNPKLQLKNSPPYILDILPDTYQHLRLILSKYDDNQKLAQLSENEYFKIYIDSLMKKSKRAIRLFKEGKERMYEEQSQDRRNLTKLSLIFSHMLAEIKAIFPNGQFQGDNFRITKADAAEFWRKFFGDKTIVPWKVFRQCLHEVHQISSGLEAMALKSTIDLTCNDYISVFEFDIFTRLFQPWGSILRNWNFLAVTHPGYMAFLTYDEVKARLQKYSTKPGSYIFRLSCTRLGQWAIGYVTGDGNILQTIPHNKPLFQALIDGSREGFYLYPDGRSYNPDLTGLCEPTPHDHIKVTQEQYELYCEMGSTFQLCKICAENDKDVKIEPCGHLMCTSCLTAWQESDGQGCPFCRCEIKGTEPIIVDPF
Chain of c-Cbl (P22681 47-435): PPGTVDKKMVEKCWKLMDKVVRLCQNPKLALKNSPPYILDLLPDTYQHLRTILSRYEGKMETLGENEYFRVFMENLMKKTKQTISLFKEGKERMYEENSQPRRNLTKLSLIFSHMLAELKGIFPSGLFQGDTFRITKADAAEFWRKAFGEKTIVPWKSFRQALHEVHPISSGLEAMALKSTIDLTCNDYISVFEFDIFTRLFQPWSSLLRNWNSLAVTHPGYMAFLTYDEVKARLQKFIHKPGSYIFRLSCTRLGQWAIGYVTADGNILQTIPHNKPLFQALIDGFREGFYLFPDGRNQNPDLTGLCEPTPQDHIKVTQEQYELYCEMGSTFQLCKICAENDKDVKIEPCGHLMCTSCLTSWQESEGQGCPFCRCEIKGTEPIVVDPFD

CC(=O)N1CCN(Cc2cc3c(c(C(F)(F)F)c2)CN(c2cccc(C4([C@@H](F)c5nncn5C)COC4)c2)C3=O)[C@@H](C(C)C)C1 [Compound 193, 6-(((S)-4-acetyl-2-isopropylpiperazin-1-yl)methyl)-2-(3-(3-((R)-fluoro(4-methyl-4H-1,2,4-triazol-3-yl)methyl)oxetan-3-yl)phenyl)-4-(trifluoromethyl)isoindolin-1-one]
IC50 (Cbl-b): 72 nM | IC50 (c-Cbl): 190 nM | (fold-selectivity) (c-Cbl): 2.6x

Cn1cnnc1CC1(c2cccc(N3Cc4c(cc(CN5CCC[C@@](C)(O)C5)cc4C(F)(F)F)C3=O)c2)CC(F)(F)C1 [Compound 441, (R)-2-(3-(3,3-difluoro-1-((4-methyl-4H-1,2,4-triazol-3-yl)methyl)cyclobutyl)phenyl)-6-((3-hydroxy-3-methylpiperidin-1-yl)methyl)-4-(trifluoromethyl)isoindolin-1-one]
IC50 (Cbl-b): 42 nM | IC50 (c-Cbl): 23 nM | (fold-selectivity) (c-Cbl): (0.56x)

C#Cc1cccc2c1CN(c1cccc(C3([C@@H](F)c4nncn4C)COC3)c1)C2=O [Compound 211, (R)-4-ethynyl-2-(3-(3-(fluoro(4-methyl-4H-1,2,4-triazol-3-yl)methyl)oxetan-3-yl)phenyl)isoindolin-1-one]
IC50 (Cbl-b): 940 nM | IC50 (c-Cbl): 1600 nM | (fold-selectivity) (c-Cbl): 1.7x

CC[C@H]1CN(Cc2cc3c(c(C(F)(F)F)c2)CN(c2cccc(C4(Cc5nncn5C)CC(F)(F)C4)c2)C3=O)CCN1C [Compound 421, (S)-2-(3-(3,3-difluoro-1-((4-methyl-4H-1,2,4-triazol-3-yl)methyl)cyclobutyl)phenyl)-6-((3-ethyl-4-methylpiperazin-1-yl)methyl)-4-(trifluoromethyl)isoindolin-1-one]
IC50 (Cbl-b): 15 nM | IC50 (c-Cbl): 11 nM | (fold-selectivity) (c-Cbl): (0.72x)

Cn1cnnc1[C@@H](F)C1(c2cccc(N3Cc4c(cc(CN5CC(C)(O)C5)cc4C(F)(F)F)C3=O)c2)CC(F)(F)C1 [Compound 52, (S)-2-(3-(3,3-difluoro-1-(fluoro(4-methyl-4H-1,2,4-triazol-3-yl)methyl)cyclobutyl)-phenyl)-6-((3-hydroxy-3-methylazetidin-1-yl)methyl)-4-(trifluoromethyl)isoindolin-1-one]
IC50 (Cbl-b): 62 nM | IC50 (c-Cbl): 130 nM | (fold-selectivity) (c-Cbl): 2.1x

CC1CC(C)(NCc2cc3c(c(C(F)(F)F)c2)CN(c2cccc(C4(Cc5nncn5C)CC(F)(F)C4)c2)C3=O)C1 (stereo not shown) [Compound 353, 2-(3-(3,3-difluoro-1-((4-methyl-4H-1,2,4-triazol-3-yl)methyl)cyclobutyl)phenyl)-6-(((1,3-dimethylcyclobutyl)amino)methyl)-4-(trifluoromethyl)isoindolin-1-one formate]
IC50 (Cbl-b): 12 nM | IC50 (c-Cbl): 6.6 nM

Cn1cnnc1CC1(c2cc(NCCC(F)(F)F)nc(N3Cc4c(cccc4C(F)(F)F)C3=O)c2)COC1 [Compound 488, 2-(4-(3-((4-methyl-4H-1,2,4-triazol-3-yl)methyl)oxetan-3-yl)-6-((3,3,3-trifluoropropyl)amino)pyridin-2-yl)-4-(trifluoromethyl)isoindolin-1-one]
IC50 (Cbl-b): 1900 nM | IC50 (c-Cbl): 12500 nM | (fold-selectivity) (c-Cbl): (6.4x)

Cn1cnnc1CC1(c2cccc(N3Cc4c(cc(CNCC5COC(C)(C)O5)cc4C(F)(F)F)C3=O)c2)CC(F)(F)C1 (stereo not shown) [Compound 357, 2-(3-(3,3-difluoro-1-((4-methyl-4H-1,2,4-triazol-3-yl)methyl)cyclobutyl)phenyl)-6-((((2,2-dimethyl-1,3-dioxolan-4-yl)methyl)amino)methyl)-4-(trifluoromethyl)isoindolin-1-one formate]
IC50 (Cbl-b): 38 nM | IC50 (c-Cbl): 41 nM

COc1cc(C2(Cc3nncn3C)CCC2)cc(N2Cc3c(cc(CN4CCN(C)C[C@@H]4C(C)C)cc3C(F)(F)F)C2=O)n1 [Compound 365, (S)-6-((2-isopropyl-4-methylpiperazin-1-yl)methyl)-2-(6-methoxy-4-(1-((4-methyl-4H-1,2,4-triazol-3-yl)methyl)cyclobutyl)pyridin-2-yl)-4-(trifluoromethyl)isoindolin-1-one]
IC50 (Cbl-b): 12 nM | IC50 (c-Cbl): 6.7 nM | (fold-selectivity) (c-Cbl): (0.57x)

CC(C)N(C)Cc1cc2c(c(C(F)(F)F)c1)CN(c1cccc(C3([C@H](F)c4nncn4C)CC(F)(F)C3)c1)C2=O [Compound 420, (S)-2-(3-(3,3-difluoro-1-(fluoro(4-methyl-4H-1,2,4-triazol-3-yl)methyl)cyclobutyl)phenyl)-6-((isopropyl(methyl)amino)methyl)-4-(trifluoromethyl)isoindolin-1-one]
IC50 (Cbl-b): 240 nM | IC50 (c-Cbl): 220 nM | (fold-selectivity) (c-Cbl): (0.91x)

Cn1cc(-c2cc(C3(Cc4nncn4C)CCC3)cc(N3Cc4c(cc(CNC5(C)CCC5)cc4C(F)(F)F)C3=O)n2)cn1 [Compound 327, 2-(6-(1-methyl-1H-pyrazol-4-yl)-4-(1-((4-methyl-4H-1,2,4-triazol-3-yl)methyl)cyclobutyl)pyridin-2-yl)-6-(((1-methylcyclobutyl)amino)methyl)-4-(trifluoromethyl)isoindolin-1-one]
IC50 (Cbl-b): 12 nM | IC50 (c-Cbl): 12 nM | (fold-selectivity) (c-Cbl): (1.0x)

CC(C)[C@H]1CN(C)CCN1Cc1cc2c(c(C(F)(F)F)c1)CN(c1cc(C3([C@H](F)c4nncn4C)CCC3)cc(NCC3CC3)n1)C2=O [Compound 279, 2-(6-((cyclopropylmethyl)amino)-4-(1-((S)-fluoro(4-methyl-4H-1,2,4-triazol-3-yl)methyl)cyclobutyl)pyridin-2-yl)-6-(((S)-2-isopropyl-4-methylpiperazin-1-yl)methyl)-4-(trifluoromethyl)isoindolin-1-one]
IC50 (Cbl-b): 7.9 nM | IC50 (c-Cbl): 10 nM | (fold-selectivity) (c-Cbl): (1.4x)

Cn1cnnc1CC1(c2cccc(N3Cc4c(cc(CNC5CC6(COC6)C5)cc4C(F)(F)F)C3=O)c2)CC(F)(F)C1 [Compound 366, 6-((2-oxaspiro[3.3]heptan-6-ylamino)methyl)-2-(3-(3,3-difluoro-1-((4-methyl-4H-1,2,4-triazol-3-yl)methyl)cyclobutyl)phenyl)-4-(trifluoromethyl)isoindolin-1-one]
IC50 (Cbl-b): 26 nM | IC50 (c-Cbl): 27 nM | (fold-selectivity) (c-Cbl): (1.0x)

CN1CC2CC(C1)N2Cc1cc2c(c(C(F)(F)F)c1)CN(c1cccc(C3(Cc4nncn4C)CC(F)(F)C3)c1)C2=O [Compound 412, 2-(3-(3,3-difluoro-1-((4-methyl-4H-1,2,4-triazol-3-yl)methyl)cyclobutyl)phenyl)-6-((3-methyl-3,6-diazabicyclo[3.1.1]heptan-6-yl)methyl)-4-(trifluoromethyl)isoindolin-1-one]
IC50 (Cbl-b): 50 nM | IC50 (c-Cbl): 51 nM | (fold-selectivity) (c-Cbl): (1.1x)

Cn1cnnc1CC1(c2cc(NCC3CC3)nc(N3Cc4c(cc(CNC5(C)CCC5)cc4C(F)(F)F)C3=O)c2)CCC1 [Compound 238, 2-(6-((cyclopropylmethyl)amino)-4-(1-((4-methyl-4H-1,2,4-triazol-3-yl)methyl)cyclobutyl)pyridin-2-yl)-6-(((1-methylcyclobutyl)amino)methyl)-4-(trifluoromethyl)-isoindolin-1-one]
IC50 (Cbl-b): 11 nM | IC50 (c-Cbl): 11 nM | (fold-selectivity) (c-Cbl): (1.0x)

CCn1cnnc1C(F)C1(c2cccc(N3Cc4c(cc(CN5CCN(C)C[C@@H]5C(C)C)cc4C(F)(F)F)C3=O)c2)CC(F)(F)C1 (stereo partly drawn) [Compound 485, 2-(3-(1-((4-ethyl-4H-1,2,4-triazol-3-yl)fluoromethyl)-3,3-difluorocyclobutyl)phenyl)-6-(((S)-2-isopropyl-4-methylpiperazin-1-yl)methyl)-4-(trifluoromethyl) isoindolin-1-one]
IC50 (Cbl-b): 31 nM | IC50 (c-Cbl): 29 nM | (fold-selectivity) (c-Cbl): (0.92x)

CC1(NCc2cc3c(c(C(F)(F)F)c2)CN(c2cccc(C4(Cc5nncn5C5CC5)CC(F)(F)C4)c2)C3=O)CCC1 [Compound 492, 2-(3-(1-((4-cyclopropyl-4H-1,2,4-triazol-3-yl)methyl)-3,3-difluorocyclobutyl)phenyl)-6-(((1-methylcyclobutyl)amino)methyl)-4-(trifluoromethyl)isoindolin-1-one]
IC50 (Cbl-b): 57 nM | IC50 (c-Cbl): 60 nM | (fold-selectivity) (c-Cbl): (1.0x)

Cn1cnnc1[C@@H](F)C1(c2cccc(N3Cc4c(cc(CN5CC6CC6C5)cc4C(F)(F)F)C3=O)c2)COC1 (stereo partly drawn) [Compound 85, 6-((3-azabicyclo[3.1.0]hexan-3 yl)methyl)-2-(3-(3-((S)-fluoro(4-methyl-4H-1,2,4-triazol-3-yl)methyl)oxetan-3-yl)phenyl)-4-(trifluoromethyl)isoindolin-1-one]
IC50 (Cbl-b): 180 nM | IC50 (c-Cbl): 370 nM | (fold-selectivity) (c-Cbl): 2.0x

COCC1(O)CN(Cc2cc3c(c(C(F)(F)F)c2)CN(c2cccc(C4([C@H](F)c5nncn5C)COC4)c2)C3=O)C1 [Compound 186, (S)-2-(3-(3-(fluoro(4-methyl-4H-1,2,4-triazol-3-yl)methyl)oxetan-3-yl)phenyl)-6-((3-hydroxy-3-(methoxymethyl)azetidin-1-yl)methyl)-4-(trifluoromethyl)isoindolin-1-one]
IC50 (Cbl-b): 110 nM | IC50 (c-Cbl): 200 nM | (fold-selectivity) (c-Cbl): 1.7x

CC(C)[C@H]1CN(C)CCN1Cc1cc2c(c(C(F)(F)F)c1)CN(c1cccc([C@]3([C@H](F)c4nncn4C)CCO3)c1)C2=O (single isomer, unassigned) [Compound 262]
IC50 (Cbl-b): 580 nM | IC50 (c-Cbl): 840 nM | (fold-selectivity) (c-Cbl): (1.4x)

Cn1cnnc1CC1(c2cccc(N3Cc4c(cc(CNC5(C)CC(F)C5)cc4C(F)(F)F)C3=O)c2)CC(F)(F)C1 (stereo not shown) [Compound 341, 2-(3-(3,3-difluoro-1-((4-methyl-4H-1,2,4-triazol-3-yl)methyl)cyclobutyl)phenyl)-6-(((3-fluoro-1-methylcyclobutyl)amino)methyl)-4-(trifluoromethyl)isoindolin-1-one]
IC50 (Cbl-b): 14 nM | IC50 (c-Cbl): 10 nM | (fold-selectivity) (c-Cbl): (0.74x)
